Molecules are shown by their SMILES.

The test system of this assay is Nilaparvata lugenis. The experiment in a line: Insecticidal test for Nilaparvata lugenis. Format: in vivo. To be noted: 144 h, 500 ppm active ingredient (wettable powder), 4-instar larvae on germinated rice paddy, 25° C., after 6 days, read-out: mortality rate. The method, then: The wettable powder prepared according to the above Preparation Example 2 was diluted with water to a concentration of 500 ppm as a concentration of active ingredient. After soaking the germinated rice paddy in the test solution, the paddy was transferred into a 60 ml volume of plastic cup. Ten (10) heads of 4-instar larvae of Nilaparvata lugenis were inoculated on the paddy and capped, then left at the constant temperature of 25° C. After 6 days from the inoculation, the number of surviving insects was counted, and mortality rate of the insect was calculated according to the following formula 1. mortality rate (%)=[(10−number of surviving insect in the test field)/10]×100 (1)

With `CC(CCCCOC(=O)c1cn(C)cn1)=C(F)F` [Compound 39, 6,6-difluoro-5-methyl-5-hexenyl 1-methyl-1H-imidazole-4-carboxylate], the mortality at 500 ppm was no less than 90%.

For the compound `CC(CCCCOC(=O)c1noc2ccccc12)=C(F)F` [Compound 44, 6,6-difluoro-5-methyl-5-hexenyl benzo[d]isoxazole-3-carboxylate], the mortality at 500 ppm was no less than 90%.

As for `CC(CCOC(=O)c1c2c(nn1C)CCC2)=C(F)F` [Compound 242, 4,4-difluoro-3-methyl-3-butenyl 2-methyl-2,4,5,6-tetrahydrocyclopentapyrazole-3-carboxylate], the mortality at 500 ppm is no less than 90%.

Regarding `CC(CCCCOC(=O)c1nc2ccccc2s1)=C(F)F` [Compound 21, 6,6-difluoro-5-methyl-5-hexenyl benzothiazole-2-carboxylate], the mortality at 500 ppm was no less than 90%.

Consider `CC(CCCCOC(=O)c1ccco1)=C(F)F` [Compound 9, 6,6-difluoro-5-methyl-5-hexenyl furan-2-carboxylate], for which the mortality at 500 ppm is no less than 90%.

For `CCCCOc1cc(C(=O)OCCC(C)=C(F)F)nc(C)n1` [Compound 276, 4,4-difluoro-3-methyl-3-butenyl 6-butoxy-2-methyl-pyrimidine-4-carboxylate], the mortality at 500 ppm was no less than 90%.

On to `CC(CCCCOC(=O)c1cnc(-c2ccccc2)s1)=C(F)F` [Compound 132, 6,6-difluoro-5-methyl-5-hexenyl 2-phenylthiazole-5-carboxylate], for which the mortality at 500 ppm was no less than 90%.

For `CC(CCCCCCOC(=O)c1cc2ccccc2s1)=C(F)F` [Compound 10, 8,8-difluoro-7-methyl-7-octenyl benzo[b]thiophene-2-carboxylate], the mortality at 500 ppm was no less than 90%.

Consider `CC(CCCCOC(=O)c1sccc1C)=C(F)F` [Compound 2, 6,6-difluoro-5-methyl-5-hexenyl 3-methylthiophene-2-carboxylate], for which the mortality at 500 ppm was no less than 90%.

For the compound `CC(CCCCOC(=O)c1ccc2ocnc2c1)=C(F)F` [Compound 43, 6,6-difluoro-5-methyl-5-hexenyl benzoxazole-5-carboxylate], the mortality at 500 ppm is no less than 90%.

Regarding `CC(CCCCOC(=O)c1cnccn1)=C(F)F` [Compound 28, 6,6-difluoro-5-methyl-5-hexenyl pyrazine-2-carboxylate], the mortality at 500 ppm was no less than 90%.

As for `CC(CCCCOC(=O)c1snnc1-c1ccccc1)=C(F)F` [Compound 11, 6,6-difluoro-5-methyl-5-hexenyl 4-phenyl[1,2,3]-thiadiazole-5-carboxylate], the mortality at 500 ppm was no less than 90%.

In the case of `CC(CCCCOC(=O)c1nc(C)n(-c2ccccc2)n1)=C(F)F` [Compound 47, 6,6-difluoro-5-methyl-5-hexenyl 5-methyl-1-phenyl-1H-[1,2,4]triazole-3-carboxylate], the mortality at 500 ppm was no less than 90%.

On to `CC(CCCCOC(=O)c1csc(-c2ccccc2)n1)=C(F)F` [Compound 129, 6,6-difluoro-5-methyl-5-hexenyl 2-phenylthiazole-4-carboxylate], for which the mortality at 500 ppm is no less than 90%.

For `CC(=O)N1CCC(C(=O)OCCCCC(C)=C(F)F)CC1` [Compound 40, 6,6-difluoro-5-methyl-5-hexenyl 1-acetylpiperidine-4-carboxylate], the mortality at 500 ppm is no less than 90%.

On to `CC(CCOC(=O)c1cccn1CC#N)=C(F)F` [Compound 282, 4,4-difluoro-3-methyl-3-butenyl 1-cyanomethyl-1H-pyrrole-2-carboxylate], for which the mortality at 500 ppm is no less than 90%.

In the case of `CC(CCCCOC(=O)c1nsc2ccccc12)=C(F)F` [Compound 45, 6,6-difluoro-5-methyl-5-hexenyl benzo[d]isothiazole-3-carboxylate], the mortality at 500 ppm is no less than 90%.

As for `CC(CCCCOC(=O)c1cnc2ccccc2c1)=C(F)F` [Compound 8, 6,6-difluoro-5-methyl-5-hexenyl quinoline-3-carboxylate], the mortality at 500 ppm is no less than 90%.

With `CC(CCCCOC(=O)C1CCOC1)=C(F)F` (stereo not drawn) [Compound 41, 6,6-difluoro-5-methyl-5-hexenyl tetrahydrofuran-3-carboxylate], the mortality at 500 ppm is no less than 90%.

For `CC(CCCCOC(=O)c1cnsn1)=C(F)F` [Compound 22, 6,6-difluoro-5-methyl-5-hexenyl [1,2,5]thiadiazole-3-carboxylate], the mortality at 500 ppm is no less than 90%.

For the compound `CC(CCOC(=O)c1ncccc1C(=O)Nc1ccccc1)=C(F)F` [Compound 234, 4,4-difluoro-3-methyl-3-butenyl 3-phenylcarbamoyl-pyridine-2-carboxylate], the mortality at 500 ppm is no less than 90%.

As for `CC(CCOC(=O)c1cccn1CC1CC1)=C(F)F` [Compound 281, 4,4-difluoro-3-methyl-3-butenyl 1-cyclopropylmethyl-1H-pyrrole-2-carboxylate], the mortality at 500 ppm was no less than 90%.

Take `CC(CCCCOC(=O)c1ccc2[nH]ccc2c1)=C(F)F` [Compound 15, 6,6-difluoro-5-methyl-5-hexenyl 1H-indole-5-carboxylate]: the mortality at 500 ppm was no less than 90%.

On to `CC(CCCCOC(=O)c1cc(Cl)nnc1Cl)=C(F)F` [Compound 48, 6,6-difluoro-5-methyl-5-hexenyl 3,6-dichloropyridazine-4-carboxylate], for which the mortality at 500 ppm is no less than 90%.

Turning to `CC(CCCCOC(=O)c1snc(Cl)c1Cl)=C(F)F` [Compound 49, 6,6-difluoro-5-methyl-5-hexenyl 3,4-dichloroisothiazole-5-carboxylate], the mortality at 500 ppm is no less than 90%.

For the compound `CCOc1oc(-c2ccccc2)nc1C(=O)OCCCCC(C)=C(F)F` [Compound 50, 6,6-difluoro-5-methyl-5-hexenyl 5-ethoxy-2-phenyl-oxazole-4-carboxylate], the mortality at 500 ppm is no less than 90%.

Take `CCc1nn(C)c(C(=O)OCCCCC(C)=C(F)F)c1Cl` [Compound 26, 6,6-difluoro-5-methyl-5-hexenyl 4-chloro-5-ethyl-2-methyl-2H-pyrazole-3-carboxylate]: the mortality at 500 ppm was no less than 90%.

With `CCn1c(C(=O)OCCCCC(C)=C(F)F)cc2ccccc21` [Compound 25, 6,6-difluoro-5-methyl-5-hexenyl 1-ethyl-1H-indole-2-carboxylate], the mortality at 500 ppm is no less than 90%.

For `CC(CCOC(=O)c1nc(C)cc(-c2ccccc2)n1)=C(F)F` [Compound 278, 4,4-difluoro-3-methyl-3-butenyl 4-methyl-6-phenyl-pyrimidine-2-carboxylate], the mortality at 500 ppm is no less than 90%.

With `CC(CCCCOC(=O)c1cccn1C)=C(F)F` [Compound 38, 6,6-difluoro-5-methyl-5-hexenyl 1-methyl-1H-pyrrole-2-carboxylate], the mortality at 500 ppm was no less than 90%.
